Key:
Format in all cases: cell-based
[1] = test system: S. mutans, S. sanguis, S. aureus, C. albicans, Methicillin resistant S. aureus, P. acnes; assay: Effective kill times of antimicrobial solutions; details: loperamide in 2.5% dimethyl sulphoxide; sampled at 30 seconds, 1, 2 and 5 minutes; data only in FIGS. 1-6
Method: A suitable broth culture of the test organism was prepared (see Table 3 below). Cultures were diluted (1:10) using a Ringer and Peptone solution. 30 ml volumes of loperamide made up in 2.5% dimethyl sulphoxide were prepared. The samples were then inoculated with 30 ml of the initial microorganism suspension, and at time intervals of 30 seconds, 1, 2 and 5 minutes, 1 ml of the sample was removed and added to 9 ml of Dey-Engley neutralizing broth. Two further serial dilutions were then prepared.
0.1 ml from the Dey-Engley broths and subsequent dilutions were spread plated and then incubated. See Table 3 below for the appropriate agar and incubation conditions.

[2] = test system: Pseudomonas stutzeri NCTC 10475; assay: Nominal Inhibitory Concentration (spiral plater); details: 24 hrs BA 37° C.
Method: (§1) A broth, appropriate to the microorganism to be tested (see Table 1 below), was inoculated aseptically from a pure plate culture and then incubated as indicated in Table 1.
(§2) Following the correct incubation, the liquid culture was diluted in a sterile saline solution to give approximately 10^5 to 10^6 CFU/ml. The suspension was serially diluted and spread plates were prepared for each dilution so as to obtain an accurate CFU/ml value.
(§3) The spiral plater was prepared by passing one cupule of IMS followed by one cupule of sterile water through the plater with the valve open and vacuum pump on. With the spiral plater cam on “Linear Deposition”, the suspension of micoorganism to be tested was placed in a new cupule. The suspension was taken up, ensuring that the glass tube was full, and the organisms were then deposited in an even spiral onto agar plates.
(§4) The depth of the agar was measured on the plates and this value recorded. Negative control plates with no added active were produced in triplicate.
(§5) The spiral plater was washed with one cupule of IMS and one cupule of sterile deionised water in-between the inoculation of different microbial samples. Once the microbial inocula had dried, the spiral plater was washed and the cam changed to “Gradient Deposition”. The antimicrobial solution was deposited in a spiral gradient directly on top of the dried inoculated spiral. Loperamide hydrochloride was used at concentrations of 1% and 0.3% made up in 50% dimethyl sulphoxide.
(§6) The spiral plater was washed with one cupule of IMS and one of sterile deionised water in-between different antimicrobial solutions. The solutions were left to dry before being incubated, at 37° C. for 24 hr, +/−6 hr or 48 hr +/−6 hr for anaerobes (see Table 1).
(§7) Following incubation, the control plates were checked to have grown to the end of the spiral inoculum. Digital calipers were used to measure the distance between the inoculation point and the point where confluent growth starts. The distance value termed the Radial Advance was used to determine the Deposition Factor (DF). The NIC can be calculated from the following formula:
(§8) NIC=Nominal Inhibitory Concentration (e.g. ppm)
(§9) SC=Stock concentration of antimicrobial (e.g. ppm)
(§10) ha=height of agar in plate (mm)

[3] = test system: Streptococcus mutans NCTC 11061; assay: Nominal Inhibitory Concentration (spiral plater); details: 24 hrs BA 37° C.
Method: as §1, §2, §3, §4, §5, §6, §7, §8, §9, §10

[4] = test system: Pseudomonas aeruginosa ATCC 9027; assay: Nominal Inhibitory Concentration (spiral plater); details: 24 hrs BA 37° C.
Method: as §1, §2, §3, §4, §5, §6, §7, §8, §9, §10

[5] = test system: Pseudomonas cepacia ATCC 25416; assay: Nominal Inhibitory Concentration (spiral plater); details: 24 hrs BA 37° C.
Method: as §1, §2, §3, §4, §5, §6, §7, §8, §9, §10

[6] = test system: Staphylococcus epidermidis ATCC 8853; assay: Nominal Inhibitory Concentration (spiral plater); details: 24 hrs TSA 37° C.
Method: as §1, §2, §3, §4, §5, §6, §7, §8, §9, §10

[7] = test system: Escherichia coli NCTC 8545; assay: Nominal Inhibitory Concentration (spiral plater); details: 24 hrs BA 37° C.
Method: as §1, §2, §3, §4, §5, §6, §7, §8, §9, §10

[8] = test system: Sphingomonas paucimobilis NCTC 11030; assay: Nominal Inhibitory Concentration (spiral plater); details: 24 hrs BA 37° C.
Method: as §1, §2, §3, §4, §5, §6, §7, §8, §9, §10

[9] = test system: Lactobacillus acidophillus NCTC 4505; assay: Nominal Inhibitory Concentration (spiral plater); details: 24 hrs BA 37° C.
Method: as §1, §2, §3, §4, §5, §6, §7, §8, §9, §10

[10] = test system: Streptococcus sanguis NCTC 10904; assay: Nominal Inhibitory Concentration (spiral plater); details: 24 hrs BA 37° C.
Method: as §1, §2, §3, §4, §5, §6, §7, §8, §9, §10

[11] = test system: Propionibacterium acnes NCTC 737; assay: Nominal Inhibitory Concentration (spiral plater); details: 48 hrs BA 37° C. anaerobically, loperamide hydrochloride 1% and 0.3% in 50% dimethyl sulphoxide
Method: as §1, §2, §3, §4, §5, §6, §7, §8, §9, §10

[12] = test system: Micrococcus luteus NCIB 8166; assay: Nominal Inhibitory Concentration (spiral plater); details: 24 hrs BA 37° C.
Method: as §1, §2, §3, §4, §5, §6, §7, §8, §9, §10

[13] = test system: Fusobacterium nucleatum NCTC 10562; assay: Nominal Inhibitory Concentration (spiral plater); details: 48 hrs BA 37° C. (anaerobically)
Method: as §1, §2, §3, §4, §5, §6, §7, §8, §9, §10

[14] = test system: Streptococcus oralis NCTC 11427; assay: Nominal Inhibitory Concentration (spiral plater); details: 24 hrs BA 37° C.
Method: as §1, §2, §3, §4, §5, §6, §7, §8, §9, §10

[15] = test system: Candida albicans NCYC 1363; assay: Nominal Inhibitory Concentration (spiral plater); details: 24 hrs SDA 37° C.
Method: as §1, §2, §3, §4, §5, §6, §7, §8, §9, §10

[16] = test system: Bacillus subtilis ATCC 6633; assay: Nominal Inhibitory Concentration (spiral plater); details: 24 hrs BA 37° C.
Method: as §1, §2, §3, §4, §5, §6, §7, §8, §9, §10

[17] = test system: Staphylococcus aureus ATCC 6538; assay: Nominal Inhibitory Concentration (spiral plater); details: 24 hrs TSA 37° C.
Method: as §1, §2, §3, §4, §5, §6, §7, §8, §9, §10

CN(C)C(=O)C(CCN1CCC(O)(c2ccc(Cl)cc2)CC1)(c1ccccc1)c1ccccc1 [Loperamide, 4-(p-chlorophenyl)-4-hydroxy-N,N-dimethyl-α,α-diphenyl-1-piperidinebutyramide]
bactericidal properties (kill time) [1]: good bactericidal properties | NIC [2]: 21 ppm | NIC [3]: 30 ppm | NIC [4]: >165 ppm | NIC [5]: 36 ppm | NIC [6]: 33 ppm | NIC [7]: >165 ppm | NIC [8]: 11 ppm | NIC [9]: 18 ppm | NIC [10]: 27 ppm | NIC [11]: 16 ppm | NIC [12]: 9 ppm | NIC [13]: 7 ppm | NIC [14]: 24 ppm | NIC [15]: 39 ppm | NIC [16]: 9 ppm | NIC [17]: 34 ppm
